In patent US20250236619A1, “FUSED BICYCLIC COMPOUND CONTAINING PYRROLINONE” (CHIA TAI TIANQING PHARMACEUTICAL GROUP CO., LTD., priority 2022, published 2025):

Key:
[1] = test system: p-SLP76 phosphorylation of Jurkat cells; test: Assay for inhibitory activity against p-SLP76 phosphorylation of Jurkat cells; format: cell-based; conditions: stimulator CD3CD28, 30 min, read-out: IC50 (nM) for inhibition of p-SLP76 phosphorylation of Jurkat cells
Description: 2.1 Assay for Inhibitory Activity Against p-SLP76 Phosphorylation of Jurkat Cells
Jurkat cells in a good growth state were added to a centrifuge tube, centrifuged, and resuspended. The cell density was adjusted to 6.25×10^6 cells/mL, and the cells were seeded in a 384-well small-volume white plate at […]. Different compounds dissolved in DMSO were added to the wells using a nanoliter pipettor to obtain final concentrations of the compounds of 2500 nM to 10.29 nM, and a control was set; the wells were set in duplicate. After 1 h of cell culture, the stimulator CD3CD28 (manufacturer: stemcell, 4 μL) was added and the cells were incubated at 37° C. for 30 min. 3 μL of lysis buffer (manufacturer: BioAuxilium) was added to each well, and the plate was shaken at room temperature for 30 min. After the lysate was well mixed, 5 μL of pre-mixed antibody (manufacturer: BioAuxilium) in assay buffer was added and the plate was incubated overnight at room temperature. The signal values were measured on a PerkinElmer Envision multimode microplate reader (excitation: 320 nm, emission: 615 nm/665 nm), and IC50 was calculated by four-parameter filling.

HPK1 kinase = HPK1 kinase (Homo sapiens (Human), UniProt Q92918); test: Assay for in vitro inhibitory activity against HPK1 kinase; format: biochemical; conditions: HPK1 1 ng/μL, ATP 1 mM, STK Substrate 1-biotin 500 nM
HPK1 kinase, sequence (Q92918 whole entry): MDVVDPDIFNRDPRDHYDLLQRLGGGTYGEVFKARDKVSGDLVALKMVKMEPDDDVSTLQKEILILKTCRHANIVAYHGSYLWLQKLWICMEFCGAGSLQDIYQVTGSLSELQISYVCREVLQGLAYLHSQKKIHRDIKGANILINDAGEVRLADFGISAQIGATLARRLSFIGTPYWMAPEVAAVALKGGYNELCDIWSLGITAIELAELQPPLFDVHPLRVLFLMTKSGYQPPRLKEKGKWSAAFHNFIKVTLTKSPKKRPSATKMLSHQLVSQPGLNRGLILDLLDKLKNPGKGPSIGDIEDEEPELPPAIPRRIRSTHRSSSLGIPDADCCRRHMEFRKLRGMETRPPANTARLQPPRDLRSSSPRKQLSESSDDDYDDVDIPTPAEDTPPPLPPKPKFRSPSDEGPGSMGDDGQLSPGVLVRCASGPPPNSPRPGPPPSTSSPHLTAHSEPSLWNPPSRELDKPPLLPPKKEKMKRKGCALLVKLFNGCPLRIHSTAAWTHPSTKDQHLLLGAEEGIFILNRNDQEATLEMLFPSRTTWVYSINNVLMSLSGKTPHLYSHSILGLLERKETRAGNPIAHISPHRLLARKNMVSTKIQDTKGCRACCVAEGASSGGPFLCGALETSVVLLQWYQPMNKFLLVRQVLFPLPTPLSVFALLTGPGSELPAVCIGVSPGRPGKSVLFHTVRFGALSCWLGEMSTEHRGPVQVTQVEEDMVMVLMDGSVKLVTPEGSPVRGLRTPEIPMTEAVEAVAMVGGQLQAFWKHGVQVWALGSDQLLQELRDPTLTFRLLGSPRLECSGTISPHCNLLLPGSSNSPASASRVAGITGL
Description: Experimental Example 1: Assay for In Vitro Inhibitory Activity Against HPK1 Kinase A kinase buffer (Enzymatic buffer 5×) was diluted to 1×, and 10 mM MgCl2, 1 mM DTT, and 0.005% Tween 20 were added. A 100 ng/μL HPK1 (Life technology) stock solution was diluted with the kinase buffer to obtain a 1.67×, 1.67 ng/μL working solution (final concentration: 1 ng/μL), and the working solution was seeded in a 384-well plate at 6 μL/well. Different compounds dissolved in DMSO were added to the wells using a nanoliter pipettor to obtain final concentrations of the compounds of 1000 nM to 0.244 nM (4-fold serial dilution, 7 concentrations in total), and blank control wells (without enzyme) and negative control wells (with enzyme, plus vehicle DMSO) were set; the wells were set in duplicate. After the enzyme and the compounds were incubated at room temperature for 1 h, a 5×, 5 mM ATP dilution (final concentration: 1 mM) in the kinase buffer was mixed with a 5×, […] substrate (Cisbio, STK Substrate 1-biotin; final concentration: 500 nM) in equal volume, and the mixture was added to the plate at 4 µL/well. The plate was sealed with a film and then incubated at room temperature for 2 h. An assay antibody solution was prepared by mixing the antibody STK Antibody-cryptate (Cisbio, 5 μL/test) and a 4×, 500 nM Streptavidin-XL665 (Cisbio; final concentration: 125 nM) in equal volume and added to the plate at 10 μL/well. The plate was incubated at room temperature for 1 h. The signal values (excitation: […]) were measured using a PE Envision multimode microplate reader, and IC50 was calculated by four-parameter fitting.

Structure (SMILES) | IC50 [1] [nM] | IC50 (HPK1 kinase) [nM]
CN(C)Cc1nc(Nc2ccc(-c3cnc4ccc5occc5n34)c3c2C(=O)NC3)ccc1-c1ccn(C)c(=O)c1 [Compound I-77] | < 50 | 2.9
CN(C)Cc1nc(Nc2ccc(-c3cnn4c3CC3(CC3)C4)c3c2C(=O)NC3)ccc1C1CCN(C)CC1 [Compound I-78] | 50 to 100 | 2.3
CN(C)Cc1nc(Nc2ccc(-c3cnn4c3CC3(CC4)CC3)c3c2C(=O)NC3)ccc1[C@@H]1CCN(C)C(=O)C1 [I-71] | < 50 | 3.6
